Earlier results, collected in patent publication US12514855B2 (IRR, Inc., priority 2020, dated 2026).

Key:
[1] = with warfarin, theophylline, digoxin, terfenadine, oral contraceptives, or prednisone
[2] = in vivo
[3] = tested on: histamine induced wheal and flare
[4] = tested on: human rhinovirus (HRV)
[5] = in vivo; remark: listed apart in the source
[6] = target: H1 receptor (Homo sapiens, UniProt P35367); settings: in an acidic pH
[7] = airway epithelial cells from nose and lung

Chain of H1 receptor (P35367 whole entry): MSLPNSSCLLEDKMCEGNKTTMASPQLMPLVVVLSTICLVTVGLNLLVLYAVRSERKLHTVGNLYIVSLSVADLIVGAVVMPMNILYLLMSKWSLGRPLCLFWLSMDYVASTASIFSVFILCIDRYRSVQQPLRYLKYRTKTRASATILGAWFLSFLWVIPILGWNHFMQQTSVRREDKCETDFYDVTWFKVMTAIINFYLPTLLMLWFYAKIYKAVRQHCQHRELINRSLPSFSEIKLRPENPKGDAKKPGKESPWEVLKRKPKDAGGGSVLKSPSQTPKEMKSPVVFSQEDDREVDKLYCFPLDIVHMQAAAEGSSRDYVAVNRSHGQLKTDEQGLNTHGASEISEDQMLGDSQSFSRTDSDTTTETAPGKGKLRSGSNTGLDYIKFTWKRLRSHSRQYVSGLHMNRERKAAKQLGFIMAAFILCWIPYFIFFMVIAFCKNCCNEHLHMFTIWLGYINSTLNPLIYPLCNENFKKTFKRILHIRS

drug interactions [1]	time to steady state level [2] [h]	dose that can be safely administered [5]	receptor affinity over first generation mepyramine [6] [×]	Compound	potency through histamine induced wheal and flare data ([3]; compared with modern generation antihistamines)	effectiveness versus fexofenadine ([3]; levocetirizine 5 mg per day vs fexofenadine 180 mg per day)	HRV viral replication [4, 7]	HRV-induced ICAM-1 [4, 7]	HRV-induced cytokine expression [4, 7]	levels of HRV-induced increases in ICAM-1 ([4]; levocetirizine added before, after, or at the time of the HRV infection)
no drug interactions	–	–	–	CC(C)(O)c1ccccc1CC[C@@H](SCC1(CC(=O)O)CC1)c1cccc(/C=C/c2ccc3ccc(Cl)cc3n2)c1 [montelukast]	–	–	–	–	–	–
–	40	up to 30 mg/day	5	O=C(O)COCCN1CCN([C@H](c2ccccc2)c2ccc(Cl)cc2)CC1 [levocetirizine]	most potent of the five modern generation antihistamines	more effective than fexofenadine	inhibit	inhibit	inhibit	reduced
